{
  "source": "patent US10004809B2",
  "about": "“Precise delivery of therapeutic agents to cell mitochondria for anti-cancer therapy” (UNIVERSITY OF GEORGIA RESEARCH FOUNDATION, INC., priority 2013, dated 2018)",
  "format_in_all_cases": "cell-based, Human",
  "key": {"PC3 cells [1]": {"tested_on": "PC3 cells", "assay": "MTT cytotoxicity assay", "details": "for IC50: MTT, 72 h incubation", "protocol": "(§1) The cytotoxic behaviors of MITO-DCA, TPP-DCA, Na-DCA, and TPP-Tris-(OH)3 were evaluated using the MTT assay against PC3, DU145, LNCaP, and MSC cells. Cells (2000 cells/well for PC3, DU145, and MSC cells; 5000 cells/well for LNCaP) were seeded on a 96-well plate in 100 μL of desired medium and incubated for 24 h. The cells were treated with different DCA compounds and TPP-Tris-(OH)3 at varying concentrations and incubated for 72 h at 37° C. The cells were then treated with 20 μL of MTT (5 mg/mL in PBS) for 5 h. The medium was removed, the cells were lysed with 100 μL of DMSO, and the absorbance of the purple tormazan was recorded at 550 nm using a Bio-Tek Synergy HT microplate reader. Each well was performed in triplicate. All experiments were repeated three times. Cytotoxicity was expressed as mean percentage increase relative to the unexposed control±SD. Control values were set at 0% cytotoxicity or 100% cell viability. Cytotoxicity data (where appropriate) was fitted to a sigmoidal curve and a three parameters logistic model used to calculate the IC50, which is the concentration of chemotherapeutics causing 50% inhibition in comparison to untreated controls. The mean IC50 is the concentration of agent that reduces cell growth by 50% under the experimental conditions and is the average from at least three independent measurements that were reproducible and statistically significant. The IC50 values were reported at ±99% confidence intervals. This analysis was performed with GraphPad Prism (San Diego, U.S.A)."}, "LNCaP cells": {"tested_on": "LNCaP cells", "assay": "MTT cytotoxicity assay", "details": "for IC50: MTT, 72 h incubation", "protocol": "as §1"}, "DU145 cells": {"tested_on": "DU145 cells", "assay": "MTT cytotoxicity assay", "details": "for IC50: MTT, 72 h incubation", "protocol": "as §1"}, "PC3 cells [2]": {"tested_on": "PC3 cells", "assay": "JC-1 assay of mitochondrial membrane potential (Δψm), live cell imaging", "details": "for JC-1 Green:Red fluorescence ratio: 6 h", "description": "An early indication of the initiation of cellular apoptosis is the collapse in the electrochemical gradient across the mitochondrial membrane, as measured by the change in the Δψm (Perry et al., BioTechniques 50:98-115, 2011). […] The potential-sensitive color shift is due to the concentration dependent formation of red fluorescent “J aggregates.” Mitochondrial depolarization is indicated by an increase in the green/red fluorescence intensity ratio. Live cell imaging of prostate cancer (PCa) PC3 cells treated with Na-DCA (150 μM), TPP-DCA (150 μM), or MITO-DCA (50 μM), followed by staining with JC-1, and a comparative analysis of the JC-1 green/red fluorescence ratio from PC3 cells in response to these three DCA analogues are represented in FIG. 3. […] Quantification of fluorescence intensities was carried out using ImageJ and the corrected total cell fluorescence (CTCF) values are represented as histograms (FIG. 3).\nPC3 cells were cultured on a live cell imaging glass bottom dish at a density of 1×10^6 cells/mL and allowed to grow overnight at 37° C. Cells were treated with 150 μM Na-DCA, 150 μM TPP-DCA, and 50 μM MITO-DCA for 6 h at 37° C. A solution of JC-1 reagent (10 μg/mL in RPMI) was added and incubation was carried out at 37° C. for 20 min. The cells were washed 3 times with PBS, and live cell imaging was performed in phenol red free RPMI media."}, "MSC cells": {"tested_on": "MSC cells", "assay": "Annexin V/PI apoptosis detection by flow cytometry", "protocol": "In order to determine whether the enhanced activity of MITO-DCA upon targeting this compound to the mitochondria of cells was due to apoptosis rather than necrosis, an ALEXA FLUOR™ 488-Annexin-V and propidium iodide (PI) cell staining in PC3 and MSC cells was carried out and data were analyzed using flow cytometry (FIG. 4B). As controls, etoposide treated cells were used as early apoptosis population and H2O2 treated cells were marked as late apoptotic or necrotic population. […] There were no late apoptotic or necrotic cells observed with these compounds.\nPC3 and MSC cells were seeded at a density of 1×10^6 cells/mL on each well of a six well plate and allowed to grow overnight. Cells were treated with 50 μM Na-DCA, 150 μM TPP-DCA, and 150 μM MITO-DCA for 12 h at 37° C. As positive controls, etoposide (100 μM, incubation time: 12 h) for apoptosis and H2O2 (1 mM, incubation time: 45 min) for necrosis were used. The cells were trypsinized, repeatedly washed, and centrifuged at 1,800 RPM for 3 min, and the supernatants were discarded. Cell density was determined and cells were resuspended in 1× annexin-binding buffer to ˜1×10^6 cells/mL preparing a sufficient volume to have 100 µL per assay. To 100 μL of cell suspension, 5 μL ALEXA FLUOR™ 488 annexin V and 1 µL 100 μg/mL PI working solution were added and incubated for 15 min at room temperature. After the incubation period, 400 μL 1× annexin-binding buffer was added to each sample, samples were gently mixed keeping the samples on ice and the samples were analyzed on the flow cytometer immediately."}},
  "data": [
    {"molecule": "O=C(CCCCC[P+](c1ccccc1)(c1ccccc1)c1ccccc1)NC(COC(=O)C(Cl)Cl)(COC(=O)C(Cl)Cl)COC(=O)C(Cl)Cl.[Br-]", "note": "[MITO-DCA]", "values": [
      {"measurement": "IC50", "setting": "PC3 cells [1]", "result": "17 ± 1", "unit": "µM"},
      {"measurement": "Activity relative to Na-DCA", "setting": "PC3 cells [1]; PC3 cells, from IC50", "result": "three orders of magnitude more active"},
      {"measurement": "Activity relative to Na-DCA", "setting": "LNCaP cells; LNCaP cells, from IC50", "result": "three orders of magnitude more activity"},
      {"measurement": "IC50", "setting": "LNCaP cells", "result": "30 ± 6", "unit": "µM"},
      {"measurement": "Activity relative to Na-DCA", "setting": "DU145 cells; DU145 cells, from IC50", "result": "three orders of magnitude more activity"},
      {"measurement": "IC50", "setting": "DU145 cells", "result": "42 ± 2", "unit": "µM"},
      {"measurement": "Change in Δψm (JC-1 imaging)", "setting": "PC3 cells [2]; 50 μM", "result": "induced marked changes in Δψm"},
      {"measurement": "JC-1 Green:Red fluorescence ratio", "setting": "PC3 cells [2]; 50 μM", "result": "3.96±0.96"},
      {"measurement": "Apoptosis (annexin V/PI)", "setting": "MSC cells; 50 μM", "result": "did not undergo apoptosis"}
    ]},
    {"molecule": "O=C(OCCC[P+](c1ccccc1)(c1ccccc1)c1ccccc1)C(Cl)Cl.[Br-]", "note": "[TPP-DCA]", "values": [
      {"measurement": "IC50", "setting": "PC3 cells [1]", "result": "68 ± 1", "unit": "µM"},
      {"measurement": "Times less active than MITO-DCA", "setting": "PC3 cells [1]; PC3 cells, from IC50", "result": "~4", "unit": "times"},
      {"measurement": "Times less active than MITO-DCA", "setting": "LNCaP cells; LNCaP cells, from IC50", "result": "~10", "unit": "times"},
      {"measurement": "IC50", "setting": "LNCaP cells", "result": "302 ± 37", "unit": "µM"},
      {"measurement": "Times less active than MITO-DCA", "setting": "DU145 cells; DU145 cells, from IC50", "result": "~10", "unit": "times"},
      {"measurement": "IC50", "setting": "DU145 cells", "result": "468 ± 49", "unit": "µM"},
      {"measurement": "Change in Δψm (JC-1 imaging)", "setting": "PC3 cells [2]; 150 μM", "result": "showed red fluorescence in most cells"},
      {"measurement": "JC-1 Green:Red fluorescence ratio", "setting": "PC3 cells [2]; 150 μM", "result": "0.49±0.09"},
      {"measurement": "Apoptosis (annexin V/PI)", "setting": "MSC cells; 150 μM", "result": "did not undergo apoptosis"}
    ]}
  ]
}
